{"source": "patent US10538491B2", "about": "“4,5-substituted picolinamide and picolinonitrile metabotropic glutamate receptor 2 negative allosteric modulators” (Vanderbilt University, priority 2015, dated 2020)", "origin": "cited, not measured here", "key": {"[1]": {"test_system": "group II mGlu receptors (mGlu2 and mGlu3)", "conditions": "cited from earlier work"}, "[2]": {"test_system": "rat", "conditions": "rat FST, normal animals; cited from earlier work"}, "[3]": {"test_system": "mouse", "conditions": "mouse TST, normal animals; cited from earlier work"}, "[4]": {"test_system": "central mGlu2 and mGlu3 receptors", "conditions": "in vivo; cited from earlier work"}, "[5]": {"test_system": "C57Bl6/J mice", "conditions": "FST; cited from earlier work"}, "[6]": {"test_system": "Helpless (H) mice", "conditions": "cited from earlier work; for activity in the tail suspension test: Helpless (H) mice"}, "[7]": {"test_system": "mice", "conditions": "cited from earlier work"}, "[8]": {"test_system": "Aβ-induced neurodegeneration", "conditions": "cited from earlier work"}, "[9]": {"conditions": "treatment for 7 days; cited from earlier work"}, "[10]": {"test_system": "olfactory bulbectomized rats", "conditions": "repeated administration for 14 days; cited from earlier work"}, "[11]": {"test_system": "social isolation reared mice", "conditions": "cited from earlier work"}, "[12]": {"conditions": "CFS model; cited from earlier work"}}, "note": "Read-outs that look alike come from different tables or passages of the source."}
{"smiles": "CCCCCCCOC(=O)[C@@]1(F)[C@@H]2C[C@@H](OCc3ccc(Cl)c(Cl)c3)[C@@](N)(C(=O)O)[C@@H]21", "note": "[BCI-838]", "values": [{"measurement": "duration of inhibition of group II mGlu receptors by brain concentration of active metabolite BCI-632", "setting": "[1]; once-daily dosing of oral prodrug", "value": 22, "unit": "h"}, {"measurement": "learning and memory impairment", "setting": "[1]; three months of treatment, Dutch APP transgenic mice", "value": "reversed Dutch APP transgene-associated learning and memory impairment"}, {"measurement": "levels of monomeric and oAβ peptides in hippocampus and cortex", "setting": "[1]; three months of treatment, two AD mouse models", "value": "decreased the levels of monomeric and oAβ peptides"}, {"measurement": "anxiolytic effects", "setting": "[1]; three months of treatment", "value": "anxiolytic effects"}, {"measurement": "hippocampal progenitor cell proliferation", "setting": "[1]; wild-type and Alzheimer's diseased mice, 3 months", "value": "stimulated hippocampal progenitor cell proliferation"}]}
{"smiles": "N[C@](CC1c2ccccc2Oc2ccccc21)(C(=O)O)[C@H]1C[C@@H]1C(=O)O", "note": "[LY341495]", "values": [{"measurement": "antidepressant-like effects", "setting": "[2]", "value": "Antidepressant-like effects"}, {"measurement": "antidepressant-like effects", "setting": "[3]", "value": "Antidepressant-like effects"}, {"measurement": "hypolocomotor effect of mGlu2/3 agonist (LY379268)", "setting": "[4]", "value": "achieved the same result"}, {"measurement": "immobility time", "setting": "[5]", "value": "dose-dependently reduced immobility time"}, {"measurement": "activity in the tail suspension test", "setting": "[6]", "value": "active"}, {"measurement": "antidepressant effect in helpless mice", "setting": "[6]; acute administration", "value": "potent antidepressant effect"}, {"measurement": "marble-burying behavior", "setting": "[7]", "value": "significantly reduce marble-burying behavior"}, {"measurement": "effect on LY566332-amplified Aβ-induced neurodegeneration", "setting": "[8]", "value": "prevented"}]}
{"smiles": "CCS(=O)(=O)N(Cc1cccnc1)c1cccc(-c2ccc(C#N)cc2)c1", "note": "[LY566332]", "values": [{"measurement": "Aβ-induced neurodegeneration", "setting": "[8]", "value": "amplified Aβ-induced neurodegeneration"}]}
{"smiles": "N[C@]1(C(=O)O)[C@H]2[C@@H](C[C@H]1OCc1ccc(Cl)c(Cl)c1)[C@]2(F)C(=O)O", "note": "[MGS0039]", "values": [{"measurement": "antidepressant-like effects", "setting": "[2]", "value": "Antidepressant-like effects"}, {"measurement": "antidepressant-like effects", "setting": "[3]", "value": "Antidepressant-like effects"}, {"measurement": "number of escape failures", "setting": "[9]", "value": "significantly reduced the number of escape failures"}, {"measurement": "hyperactivity in the open field test", "setting": "[10]", "value": "attenuated the hyperactivity"}, {"measurement": "learning deficit in the passive avoidance test", "setting": "[10]", "value": "attenuated the learning deficit"}, {"measurement": "immobility in the FST", "setting": "[11]", "value": "reversed the increased immobility"}, {"measurement": "marble-burying behavior", "setting": "[7]", "value": "reduced marble-burying behavior"}, {"measurement": "spontaneous locomotor activity", "setting": "[7]", "value": "no significant change"}, {"measurement": "freezing behavior", "setting": "[12]", "value": "significantly decreased freezing behavior"}]}
{"smiles": "Cc1cc(-c2cccc(C3=Nc4cc(C)c(C(F)(F)F)cc4NC(=O)C3)c2)cc(C)n1", "note": "[RO4491533]", "values": [{"measurement": "hypolocomotor effect of mGlu2/3 agonist (LY379268)", "setting": "[4]", "value": "reversed the hypolocomotor effect"}, {"measurement": "immobility time", "setting": "[5]", "value": "dose-dependently reduced immobility time"}, {"measurement": "activity in the tail suspension test", "setting": "[6]", "value": "active"}]}
{"smiles": "CN1C(=O)CN=C(c2ccccc2)c2cc(Cl)ccc21", "note": "[diazepam]", "values": [{"measurement": "freezing behavior", "setting": "[12]", "value": "significantly decreased freezing behavior"}]}
{"smiles": "CNCCC(Oc1ccc(C(F)(F)F)cc1)c1ccccc1", "note": "(stereo not shown) [fluoxetine]", "values": [{"measurement": "antidepressant effect in helpless mice", "setting": "[6]; chronic (21 days) treatment", "value": "full antidepressant effect"}]}
